Measured values as given in PMC8760490, “Discovery of novel furanylbenzamide inhibitors that target oncogenic tyrosine phosphatase SHP2 in leukemia cells” (The Journal of Biological Chemistry, 2021).

Tests used:
[1] = molecular target: T1, PTP1B (1–300) catalytic domain (Homo sapiens, UniProt P18031); test: DiFMUP phosphatase inhibition assay, PTP1B; assay type: biochemical; conditions: for IC50: catalytic domain, DiFMUP at Km (25 μM); for selectivity for SHP2 over PTP1B: from IC50 values against catalytic domains
T1 construct: Recombinant human PTP1B (1–300); His tag (pET-15b) (N); made in house; host or cells: E. coli BL21(DE3)
T1 sequence (P18031 1-300): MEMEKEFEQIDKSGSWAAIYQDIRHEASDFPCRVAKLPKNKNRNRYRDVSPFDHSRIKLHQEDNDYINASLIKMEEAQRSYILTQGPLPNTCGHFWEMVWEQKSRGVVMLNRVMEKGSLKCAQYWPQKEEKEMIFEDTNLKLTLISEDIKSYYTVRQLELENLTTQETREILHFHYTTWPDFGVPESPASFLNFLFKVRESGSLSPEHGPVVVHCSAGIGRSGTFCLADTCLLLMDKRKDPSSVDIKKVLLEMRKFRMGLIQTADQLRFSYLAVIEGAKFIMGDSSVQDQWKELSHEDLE
Protocol: (§1) Selectivity is one of the biggest challenges in PTP inhibitor development. […] Similar to SHP2, we adapted a 384-well plate format DiFMUP assay for recombinant PTP1B and STEP and performed Michaelis–Menten experiments to determine DiFMUP Km values for each phosphatase. IC50 values of our inhibitors for PTP1B and STEP were determined in 10-point dose–response assays with DiFMUP used at the concentration corresponding to the respective Km value. […] Other inhibitors with good relative selectivity for SHP2 included SBI-4668 (13-fold selective over PTP1B; 73-fold selective over STEP) and SBI-3404 (fivefold selective over PTP1B; >71-fold selective over STEP).
(§2) Recombinant human full-length SHP2 (1–594) WT and E76K mutants, as well as the SHP2cat (248–527), were expressed and purified as described before ([36], [41]). Recombinant human PTP1B (1–300) and the codon-optimized STEP (280–566) catalytic domains were cloned into PET-15b and expressed as N-His-tagged fusion proteins. For expression, transformed BL21(DE3) cells were grown and induced similar as described for SHP2. Collected cells were resuspended in lysis buffer (25 mM Tris, pH 7.5, 300 mM NaCl, 50 mM imidazole, and 10% glycerol) with 100 mg/l RNaseA and were lysed with two passages using a microfluidizer. The lysate was clarified by centrifugation at 15,000g for 50 min and applied to nickel–nitrilotriacetic acid resin. The column resin was washed, and the PTP1B or STEP protein was eluted in lysis buffer at 300 mM imidazole. The PTP1B or STEP protein was further purified by S75 size-exclusion chromatography in 50 mM Tris, pH 7.5, 50 mM NaCl. The eluted peak fractions were supplemented with tris(2-carboxyethyl)phosphine to 10 mM, concentrated by ultrafiltration, and stored at −80 °C. The purified yield of PTP1B was 33 mg/l cell culture; the yield of STEP was 16 mg/l cell culture.
(§3) SHP2 inhibitors were tested at RT in a 384-well plate format standard phosphatase fluorescence intensity assay using DiFMUP (Invitrogen/Thermo Fisher Scientific) as a substrate and a total reaction volume of 25 μl. SHP2 inhibitors or vehicle (DMSO) were spotted in triplicate into a black Greiner FLUOTRAC 200 384-well microplate (catalog no.: 781076; Greiner) for a 10-point dose–response assay using an Echo 555 Liquid Handler (Labcyte, Inc). PTP working solutions were prepared at a 0.625 nM concentration (for a final concentration of 0.5 nM) in buffer containing 50 mM Bis–Tris, pH 6.0, 50 mM NaCl, 5 mM DTT, and 0.01% Tween-20. Prior to the assay, a dually phosphorylated IRS-1 peptide (625 nM [500 nM final] ([30])) was added to full-length WT SHP2 working solutions and incubated for 20 min. DiFMUP working solutions at 5× final concentration were prepared in 50 mM Bis–Tris, pH 6.0, 50 mM NaCl, and 0.01% Tween-20. About 20 μl of PTP working solution was dispensed into the microplate and incubated with inhibitor for 20 min at RT. […] The reaction was initiated by addition of 5 μl DiFMUP working solutions. Fluorescence intensity was measured in kinetic mode (every minute for 7 or 10 min) using a Tecan Spark Multimode Microplate Reader (Tecan) with an excitation wavelength of 360 nm and an emission wavelength of 460 nm. The initial rates were determined from the linear progression curves of the PTP reaction. The nonenzymatic hydrolysis of the substrate was corrected by using a control without addition of enzyme. IC50 values were calculated from the corrected initial rates by nonlinear regression using the program GraphPad Prism, version 8 (GraphPad Software, Inc) software. Dose–response inhibition assays of SHP2cat using the substrate OMFP were performed similarly as described previously for DiFMUP. OMFP was used at a concentration corresponding to its Km value for SHP2cat (50 μM final). Fluorescence intensity was measured in kinetic mode (every minute for 10 min) using a Tecan Spark Multimode Microplate Reader with an excitation wavelength of 485 nm and an emission wavelength of 535 nm. […]

[2] = molecular target: T2, STEP (280–566) catalytic domain (Homo sapiens, UniProt P54829); test: DiFMUP phosphatase inhibition assay, STEP; assay type: biochemical; conditions: for IC50: catalytic domain, DiFMUP at Km (4 μM); for selectivity for SHP2 over STEP: from IC50 values against catalytic domains
T2 construct: the codon-optimized STEP (280–566) catalytic domains; His tag (pET-15b) (N); made in house; host or cells: E. coli BL21(DE3)
T2 sequence (P54829 280-565 limits assumed): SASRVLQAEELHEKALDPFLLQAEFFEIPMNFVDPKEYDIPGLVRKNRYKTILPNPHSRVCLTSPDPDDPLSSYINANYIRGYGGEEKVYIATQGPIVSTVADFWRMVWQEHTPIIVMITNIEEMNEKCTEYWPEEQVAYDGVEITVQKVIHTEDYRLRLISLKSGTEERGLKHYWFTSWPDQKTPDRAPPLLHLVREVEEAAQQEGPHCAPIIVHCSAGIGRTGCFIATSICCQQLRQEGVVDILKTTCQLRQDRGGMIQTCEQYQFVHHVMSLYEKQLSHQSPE
Protocol: as §1, §2, §3

SMILES | IC50 [1] [µM] | selectivity for SHP2 over PTP1B [1] | IC50 [2] [µM] | selectivity for SHP2 over STEP [2] [fold]
Nc1ccc(NC(=O)c2cc(-c3ccc(/C=C4\Sc5ccccc5C4=O)o3)ccc2O)cc1 [SBI-2130, (Z)-N-(4-Aminophenyl)-2-hydroxy-5-(5-((3-oxobenzo[b]thiophen-2(3H)-ylidene)methyl)furan-2-yl)benzamide] | 6.8 | 31 fold | 44 | 200
O=C1CCCC1=Cc1ccc(-c2ccc(O)c(C(=O)Nc3ccccc3)c2)o1 [SBI-3192, 2-Hydroxy-5-(5-((2-oxocyclopentylidene)methyl)furan-2-yl)-N-phenylbenzamide] | 1.9 |  | 27 | 
N#Cc1cc(-c2ccc(/C=C3\Sc4ccccc4C3=O)o2)ccc1O [SBI-3404, (Z)-2-Hydroxy-5-(5-((3-oxobenzo[b]thiophen-2(3H)-ylidene)methyl)furan-2-yl)benzonitrile] | 7.4 | fivefold |  | > 71
O=C1/C(=C/c2ccc(-c3ccc(O)c(-c4nn[nH]n4)c3)o2)Sc2ccccc21 [SBI-3405, (Z)-2-((5-(4-Hydroxy-3-(2H-tetrazol-5-yl)phenyl)furan-2-yl)methylene)benzo[b]thiophen-3(2H)-one] | 5.3 |  | 7.7 | 
O=C(Nc1ccccc1)c1cc(-c2ccc(/C=C3\Sc4ccccc4C3=O)o2)ccc1O [SBI-4668, (Z)-2-Hydroxy-5-(5-((3-oxobenzo[b]thiophen-2(3H)-ylidene)methyl)furan-2-yl)-N-phenylbenzamide] | 9.4 | 13 fold | 53 | 73
